molecular target: T1, rhJAK3 (Homo sapiens, UniProt P52333); assay: JAK Biochemical HTRF Assay (JAK3); details: recombinant purified GST-tagged catalytic domain, HTRF format, [ATP] 1.7 μM; read-out: rhJAK3 IC50
T1 construct: recombinant purified GST-tagged catalytic domain for each enzyme; purchased Invitrogen PV3855
Procedure: JAK Biochemical HTRF Assay Protocol
The ability of compounds to inhibit the activity of JAK1, JAK2, JAK3, and TYK2 was measured using a recombinant purified GST-tagged catalytic domain for each enzyme (Invitrogen JAK1 #PV4774, JAK2 #PV4210, JAK3 #PV3855, TYK2 #PV4790) in an HTRF format biochemical assay. The reactions employed a common peptide substrate, LCB-EQEDEPEGDYFEWLW-NH2. The basic assay protocol is as follows: First, […] of diluted compounds in DMSO were dispensed into the wells of a dry 384-well Black plate (Greiner #781076) using a Labcyte Echo 555 acoustic dispenser. Subsequent reagent additions employed a Thermo Multidrop Combi nL. Next, 10 μL of 2× enzyme and 2× substrate in 1× assay buffer (Invitrogen kinase buffer #PV3189, 2 mM DTT, 0.05% BSA) were added to the wells and preincubated for 30 min at room temperature to allow compound binding to equilibrate. After equilibration, 10 μl, of 2×ATP in 1× assay buffer was added to initiate the kinase reaction and the plates were incubated at room temperature for 120 min. At the end of the incubation, 20 μL of 2× stop buffer containing streptavidin-Dylight (Thermo #21845) and Eu-tagged pY20 antibody (Perkin Elmer #AD0067) was added to quench the reaction. Plates were further incubated 60 min at room temperature with shaking and then read on a Perkin Elmer Envision (λex=337 nm, λem=665 and 615 nm, TRF delay time=20 μs). HTRF signal=10,000*665 nm reading/615 nm reading. After normalization to untreated controls, the percent inhibition of the HTRF signal at each compound concentration was calculated. The plot of percent inhibition vs. the log of compound concentration was fit with a 4-parameter dose response equation to calculate IC50 values.

T1 sequence (P52333 822-1111 limits assumed): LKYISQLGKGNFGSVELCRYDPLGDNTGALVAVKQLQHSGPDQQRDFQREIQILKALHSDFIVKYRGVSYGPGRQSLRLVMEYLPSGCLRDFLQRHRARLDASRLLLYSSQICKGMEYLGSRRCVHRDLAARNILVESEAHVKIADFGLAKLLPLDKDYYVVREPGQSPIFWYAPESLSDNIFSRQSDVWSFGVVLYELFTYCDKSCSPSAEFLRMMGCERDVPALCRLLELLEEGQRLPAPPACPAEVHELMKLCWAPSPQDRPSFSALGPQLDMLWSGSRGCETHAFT

Row | Compound | IC50 [nM]
1 | C[C@@H](Nc1cncc(-c2c[nH]c3ncc(Cl)cc23)n1)C(=O)N1CCC(F)(F)CC1 [Example 2-12, 6-(5-chloro-1H-pyrrolo[2,3-b]-pyridin-3-yl)-N-[(1R)-2-(4,4-difluoropiperidin-1-yl)-1-methyl-2-oxoethyl]pyrazin-2-amine] | 100 to 1000
2 | C[C@@H](Nc1cncc(-c2c[nH]c3ncc(Cl)cc23)n1)C(=O)NC1CCCCNC1=O (stereo partly drawn) [Example 2-13, N^2-[6-(5-chloro-1H-pyrrolo[2,3-b]-pyridin-3-yl)pyrazin-2-yl]-N-(2-oxoazepan-3-yl)-D-alaninamide] | 100 to 1000
3 | C[C@@H](Nc1cncc(-c2c[nH]c3ncc(Cl)cc23)n1)C(=O)NCc1ccc(N)cc1 [Example 2-14, N-(4-aminobenzyl)-N^2-[6-(5-chloro-1H-pyrrolo[2,3-b]pyridin-3-yl)pyrazin-2-yl]-D-alaninamide] | 100 to 1000
4 | C[C@@H](Nc1cncc(-c2c[nH]c3ncc(Cl)cc23)n1)C(=O)NCCc1cccs1 [Example 2-15, N^2-[6-(5-chloro-1H-pyrrolo[2,3-b]-pyridin-3-yl)pyrazin-2-yl]-N-(2-thiophen-2-ylethyl)-D-alaninamide] | 100 to 1000
5 | C[C@@H](Nc1cncc(-c2c[nH]c3ncc(Cl)cc23)n1)C(=O)NCC(=O)NC1CCCC1 [Example 2-16, N-[6-(5-chloro-1H-pyrrolo[2,3-b]-pyridin-3-yl)pyrazin-2-yl]-D-alanyl-N-cyclopentylglycinamide] | 100 to 1000
6 | C[C@@H](Nc1cncc(-c2c[nH]c3ncc(Cl)cc23)n1)C(=O)NC1CCC1 [Example 2-17, N^2-[6-(5-chloro-1H-pyrrolo[2,3-b]-pyridin-3-yl)pyrazin-2-yl]-N-cyclo-butyl-D-alaninamide] | 10 to 100
7 | C[C@@H](Nc1cncc(-c2c[nH]c3ncc(Cl)cc23)n1)C(=O)N[C@H](CO)Cc1ccc(O)cc1 [Example 2-18, N^2-[6-(5-chloro-1H-pyrrolo[2,3-b]-pyridin-3-yl)pyrazin-2-yl]-N-[(1S)-2-hydroxy-1-(4-hydroxybenzyl)-ethyl]-D-alaninamide] | 100 to 1000
8 | C[C@@H](Nc1cncc(-c2c[nH]c3ncc(Cl)cc23)n1)C(=O)N1CCN(CC(F)(F)F)CC1 [Example 2-19, 6-(5-chloro-1H-pyrrolo[2,3-b]-pyridin-3-yl)-N-{(1R)-1-methyl-2-oxo-2-[4-(2,2,2-trifluoroethyl)-piperazin-1-yl]ethyl}pyrazin-2-amine] | 100 to 1000
9 | C[C@@H](Nc1cncc(-c2c[nH]c3ncc(Cl)cc23)n1)C(=O)NCCCN1CCS(=O)(=O)CC1 [Example 2-20, N^2-[6-(5-chloro-1H-pyrrolo[2,3-b]-pyridin-3-yl)pyrazin-2-yl]-N-[3-(1,1-dioxidothiomorpholin-4-yl)-propyl]-D-alaninamide] | 100 to 1000
10 | C[C@@H](Nc1cncc(-c2c[nH]c3ncc(Cl)cc23)n1)C(=O)NCc1ccc(C(F)(F)F)cc1 [Example 2-21, N^2-[6-(5-chloro-1H-pyrrolo[2,3-b]-pyridin-3-yl)pyrazin-2-yl]-N-[4-(trifluoromethyl)benzyl]-D-alaninamide] | 100 to 1000
11 | C[C@H](Nc1cncc(-c2c[nH]c3ncc(Cl)cc23)n1)C(=O)NCCC(F)(F)F [Example 2-22, N^2-[6-(5-chloro-1H-pyrrolo[2,3-b]-pyridin-3-yl)pyrazin-2-yl]-N-(3,3,3-trifluoropropyl)-L-alaninamide] | 10 to 100
12 | CC(C)CNC(=O)[C@H](C)Nc1cncc(-c2c[nH]c3ncc(Cl)cc23)n1 [Example 2-23, N^2-[6-(5-chloro-1H-pyrrolo[2,3-b]-pyridin-3-yl)pyrazin-2-yl]-N-(2-methylpropyl)-L-alaninamide] | 10 to 100
13 | C[C@H](Nc1cncc(-c2c[nH]c3ncc(Cl)cc23)n1)C(=O)NCC(C)(C)C [Example 2-24, N^2-[6-(5-chloro-1H-pyrrolo[2,3-b]-pyridin-3-yl)pyrazin-2-yl]-N-(2,2-dimethylpropyl)-L-alaninamide] | 100 to 1000
14 | O=C(NCC(F)(F)F)C1(Nc2cncc(-c3c[nH]c4ncc(Cl)cc34)n2)CCCC1 [Example 2-25, 1-{[6-(5-chloro-1H-pyrrolo[2,3-b]pyridin-3-yl)pyrazin-2-yl]amino}-N-(2,2,2-trifluoroethyl)cyclopentanecarboxamide] | ≤ 1
15 | O=C(NCCC(F)(F)F)C1(Nc2cncc(-c3c[nH]c4ncc(Cl)cc34)n2)CCCC1 [Example 2-26, 1-{[6-(5-chloro-1H-pyrrolo[2,3-b]pyridin-3-yl)pyrazin-2-yl]amino}-N-(3,3,3-trifluoropropyl)cyclopentanecarboxamide] | 100 to 1000
16 | O=C(NCC(F)(F)F)[C@@H]1[C@@H](O)CN1c1cncc(-c2c[nH]c3ncc(Cl)cc23)n1 [Example 3, (2S,3S)-1-[6-(5-Chloro-1H-pyrrolo[2,3-b]pyridin-3-yl)pyrazin-2-yl]-3-hydroxy-N-(2,2,2-trifluoroethyl)azetidine-2-carboxamide] | 1 to 10
17 | CS(=O)(=O)N1CCN(c2cncc(-c3c[nH]c4ncc(Cl)cc34)n2)[C@@H](C(=O)NCC(F)(F)F)C1 [Example 4, (2R)-1-[6-(5-Chloro-1H-pyrrolo[2,3-b]pyridin-3-yl)pyrazin-2-yl]-4-methylsulfonyl-N-(2,2,2-trifluoroethyl)piperazine-2-carboxamide] | 1 to 10
18 | CC(=O)N1CCN(c2cncc(-c3c[nH]c4ncc(Cl)cc34)n2)[C@@H](C(=O)NCC(F)(F)F)C1 [Example 4-2, (2R)-4-acetyl-1-[6-(5-chloro-1H-pyrrolo-[2,3-b]pyridin-3-yl)pyrazin-2-yl]-N-(2,2,2-trifluoroethyl)piperazine-2-carboxamide] | 1 to 10
19 | CC(C)(C)C(=O)N1CCN(c2cncc(-c3c[nH]c4ncc(Cl)cc34)n2)[C@@H](C(=O)NCC(F)(F)F)C1 [Example 4-3, (2R)-1-[6-(5-chloro-1H-pyrrolo[2,3-b]-pyridin-3-yl)pyrazin-2-yl]-4-(2,2-dimethylpropanoyl)-N-(2,2,2-trifluoro-ethyl)piperazine-2-carboxamide] | 10 to 100
20 | O=C(Cn1ccc2ncc(-c3c[nH]c4ncc(Cl)cc34)nc21)NCC(F)(F)F [Example 5, 2-[3-(5-Chloro-1H-pyrrolo[2,3-b]pyridin-3-yl)-5H-pyrrolo[2,3-b]pyrazin-5-yl]-N-(2,2,2-trifluoroethyl)acetamide] | 10 to 100
21 | O=C(NCC(F)(F)F)C1(Oc2cncc(-c3c[nH]c4ncc(Cl)cc34)n2)CC1 [Example 6, 1-{[6-(5-Chloro-1H-pyrrolo[2,3-b]pyridin-3-yl)pyrazin-2-yl]oxy}-N-(2,2,2-trifluoroethyl)-cyclopropanecarboxamide] | 1 to 10
22 | NC(=O)C1(Oc2cncc(-c3c[nH]c4ncc(Cl)cc34)n2)CC1 [Example 6-1, 1-{[6-(5-chloro-1H-pyrrolo[2,3-b]pyridin-3-yl)pyrazin-2-yl]oxy}cyclopropane-carboxamide] | 1 to 10
23 | CN(C)C(=O)C1(Oc2cncc(-c3c[nH]c4ncc(Cl)cc34)n2)CC1 [Example 6-2, 1-{[6-(5-chloro-1H-pyrrolo[2,3-b]pyridin-3-yl)pyrazin-2-yl]oxy}-N,N-dimethyl-cyclopropanecarboxamide] | 1 to 10
24 | O=C(NCCC(F)(F)F)C1(Oc2cncc(-c3c[nH]c4ncc(Cl)cc34)n2)CC1 [Example 6-3, 1-{[6-(5-chloro-1H-pyrrolo[2,3-b]pyridin-3-yl)pyrazin-2-yl]oxy}-N-(3,3,3-trifluoro-propyl)cyclopropanecarboxamide] | 100 to 1000
